US20230271950A1, “ANTIBACTERIAL PICOLINAMIDE COMPOUNDS” (University of Notre Dame Du Lac, priority 2020, published 2023)

Key:
C. difficile ATCC43255 = test: Macromolecular synthesis assay (radioactive precursor incorporation); format: cell-based, Clostridioides difficile; settings: 0.5×MIC
Experimental: FIG. 2. Mechanism of action of compound 1. (A) Macromolecular biosynthesis assays: Compound 1 was incubated with C. difficile ATCC43255 at 0.5×MIC. […] The incubation time was 60 min for DNA, 120 min for peptidoglycan synthesis and RNA, and 180 min for protein synthesis. (B-G) Imaging of C. difficile […] vegetative cells (logarithmic growth) by scanning electron microscopy.
The mechanism of action of 1 was investigated using macromolecular synthesis assays. These assays measure the incorporation of radioactive precursors ([2,8-^3H]-adenine, [5,6-^3H]-uridine, 1-[3,4,5-^3H(N)]-leucine, and N-acetyl-d-[6-^3H]glucosamine) respectively into DNA, RNA, protein, and peptidoglycan. […] This analysis visualizes the cell wall as the outermost layer of the cell envelope of Gram-positive bacteria such as C. difficile.
Macromolecular synthesis assay. The macromolecular synthesis assay was performed by established methods. […] The radiolabeled precursors were purchased from Perkin Elmer (Waltham, Mass., USA).

C. difficile = test: Minimum bactericidal concentration (MBC); format: cell-based, Clostridioides difficile
ESKAPE panel = test: MIC against the ESKAPE panel; format: cell-based; settings: E. faecium, S. aureus, K. pneumoniae, A. baumannii, P. aeruginosa, Enterobacter species
Experimental: Minimum-inhibitory Concentration Determination. MICs for C. difficile strains and other gut bacteria were determined with the broth microdilution method as previously described (J. Antimicrob. Chemother. 2013, 68, 515). ESKAPE panel and MRSA MICs were determined as described in the Clinical & Laboratory Standards Institute guidelines.

| Structure (SMILES) | inhibition of DNA, RNA, and protein synthesis (C. difficile ATCC43255) | inhibition of cell-wall peptidoglycan biosynthesis (C. difficile ATCC43255; N-acetyl-d-[6-^3H]glucosamine incorporation, 120 min) | MBC higher than MIC (C. difficile; C. difficile) | MBC (C. difficile; Clostridioides difficile, C. difficile) | bacteriostatic or bactericidal (by definition) (C. difficile; from MBC versus MIC) | activity against the ESKAPE panel (ESKAPE panel) |
| --- | --- | --- | --- | --- | --- | --- |
| O=C(O)c1ccc2oc(NC(=O)c3cc(Oc4cccc(OC(F)(F)F)c4)ccn3)nc2c1 [Compound 1, Sodium 2-(4-(3-(trifluoromethoxy)phenoxy)picolinamido)benzo[d]oxazole-5-carboxylate] | Minimal levels of inhibition | 55±4% | 64 fold | 4 µg/mL | bacteriostatic | – |
| O=C(Nc1ncco1)c1ccnc(-c2ccc(Cl)c(Cl)c2)c1 [Compound 4, 2-(3,4-Dichlorophenyl)-N-(oxazol-2-yl)isonicotinamide] | – | – | – | – | – | active only against the Gram-positive members of the panel |
